In brackets after ≈: the same amount, converted by molar mass.

Series [1] concerns Aspergillus fumigatus 293. Put plainly: Antifungal MIC, two-fold serial dilution. In kind it is cell-based. Conditions: Fungi, glucose minimal medium, 30°C, 48 h, visual (no turbidity). The method, then:
(§1) The antimicrobial activity of the synthesized thiadiazolopyrimidine compounds was studied toward diverse pathogenic strains, such as gram-positive bacteria (Staphylococcus aureus ATCC 29213 and Bacillus cereus UW85), gram-negative bacteria (Escherichia coli ATCC 12435 and Pseudomonas aeruginosa ATCC 29260), and fungi (Candida albicans and Aspergillus fumigatus 293). The assessment was performed through the two-fold dilution technique using Ampicillin (antibacterial) and Fluconazole (antifungal) as the reference drugs[28],[29]. The minimal inhibitory concentration (MICs, µg/mL) of the synthesized derivatives for prohibiting microbial growth was determined through the visual detection (no turbidity) technique.
(§2) The synthesized thiadiazolopyrimidine-based compounds were evaluated and adopted for antibacterial and antifungal effectiveness using the approved procedure[38],[39].
(§3) Minimal inhibitory concentrations (MICs) were determined by serial dilution technique using 96-multiwell microtiter plates. The investigated compounds were dissolved in DMSO 100% to prepare stock solutions of 5000 µg/mL. Two-fold serial dilutions of the dissolved compounds were performed in glucose minimal medium providing eight different concentrations (1250, 625, 312.5, 156, 78, 39, 19.5 µg/mL). The microorganisms were diluted to 1 ×10^3 SFU/mL in glucose minimal medium, and 20 µL of the diluted culture was added to the test solutions (50 µL) in the wells (one well per concentration). The plates were incubated at 30°C for 48 h. MIC was detected visually as the least concentration inhibiting fungal growth (no turbidity) and the activity of the tested compounds was estimated in comparison to fluconazole.

For a further series, the system named is Candida albicans. In words: Antifungal MIC, two-fold serial dilution. Format: cell-based. Conditions: Fungi, glucose minimal medium, 30°C, 48 h, visual (no turbidity). The protocol: as §1, §2, §3
In series [2] the test system is Chromobacterium violaceum (ATCC 12472). In words: Antiquorum-sensing assay (violacein pigment inhibition). In kind it is cell-based. Conditions: Chromobacterium violaceum, ATCC12472, 48 h, read-out: Diameter of quorum-sensing inhibition C. violaceum. An excerpt: The synthesized thiadiazolopyrimidine-based compounds were screened for their antiquorum-sensing (anti-QS) inhibition activity by the Chromobacterium violaceum (ATCC 12472) technique using catechin as the standard compound[28]–[30]. The QS technique of C. violaceum was remarked by the detection of violacein (violet pigment)[31],[32]. Meanwhile, the reactivity of the synthesized thiadiazolopyrimidine-containing derivatives as drugs depends on their efficiency to inhibit the liberation of violacein during the QS technique. The QS inhibition was determined by the following equation: QS inhibition (mm) = (r2 − r1), where r1 is the inhibition radius of the bacterial growth and r2 is the inhibition radius for growth as well as the release of the pigment.
The anti-QS inefficiency was evaluated using the previous technique mentioned in the literature.
The culture was prepared by growing Ch. violaceum ATCC 12472 in LB broth and incubated for 16–18 h in an orbital incubator running at 28°C and 150 rpm. The culture was then adjusted to 0.5 McFarland standard (ca. 1 × 10^6 CFU/mL). Ch. violaceum (50 µL) was inoculated into LB agar (50 mL), poured into plates, and solidified. Wells were made in LB agar medium using cork borer. The tested compounds were dissolved in DMSO 100% in Eppendorf tubes for final concentration of 5 mg/mL, and 50 µL of the test solution was applied into the wells. The positive control (catechin) was also added at the same concentration and volume to each plate. In addition, DMSO (control solvent) was added to each plate. […] Bacterial growth inhibition by the tested compounds was measured as radius (r1) in mm, while both growth and pigment inhibition was measured as radius (r2) in mm. The pigment inhibition (QS inhibition) was determined by subtracting bacterial growth inhibition (r1) from the total radius (r2); thus, QS inhibition = (r2 - r1) in mm.

The next series deals with Hep-2. In words: MTT cytotoxicity assay. Format: cell-based. The settings on record: Homo sapiens, HEp-2, 72 h, 3 days. The protocol: (§4) The cytotoxicity of the prepared tri-and tetra-cyclic thiadiazolopyrimidine compounds were examined toward various cancer cell lines, such as liver and breast cancer (MCF-7), prostate cancer (PC3), laryngeal carcinoma (Hep-2), carcinoma (HepG2), and standard normal fibroblast cells (WI38) using the MTT assay[33] at the National Research Centre (Egypt). The cytotoxicity (Table 3) toward 50% inhibition of the cell viability (IC50 values) was assessed using 5-fluorouracil (5-Fu) as the standard anticancer drug.
(§5) The synthesized compounds were subjected to the MTT cytotoxicity assay on the basis of the cited literature.
(§6) MTT cytotoxicity assay: The technical method of MTT assay depends on the reduction of yellow 3-(4,5-methyl-2-thiazolyl)-2,5-diphenyl-2H-tetrazolium bromide (MTT) into purple formazan product, mainly by mitochondrial reductase activity inside the living cells. The cells used in cytotoxicity assay were cultured in RPMI 1640 medium supplemented with 10% fetal calf serum. Cells suspended in the medium (2×10^4 cells/mL) were plated in 96-well culture plates and incubated at 37 °C in a 5% CO2 incubator for 12 hours. The tested sample (2 μL) was added to the cells (2×10^4) in 96-well plates and cultured at 37 °C for 3 days. The cultured cells were mixed with 20 μL of MTT solution and incubated for 4 hours at 37 °C. The supernatant was carefully removed from each well, the formazan crystals were dissolved after addition of DMSO (100 μL) for each well to form the cellular reduction of MTT. After mixing with a mechanical plate mixer, the absorbance of each well was measured by a microplate reader using a test wavelength of 570 nm. The results were expressed as the IC50 values, which inducing 50% inhibition of cell growth of the treated cells when compared to the growth of control cells.

A further series has as its system HepG2. In words: MTT cytotoxicity assay. Conditions: Homo sapiens, HepG2, 72 h, 3 days. In kind it is cell-based. The protocol:
as §4, §5, §6

The next series deals with MCF-7. In words: MTT cytotoxicity assay. In kind it is cell-based. The settings on record: Homo sapiens, MCF7, 72 h, 3 days. The protocol: as §4, §5, §6
The subject of a further series is PC3. In words: MTT cytotoxicity assay. The settings on record: Homo sapiens, PC-3, 72 h, 3 days. Format: cell-based. The protocol: as §4, §5, §6
The nature of series [3]: MTT cytotoxicity assay on normal cells. In kind it is cell-based. The settings on record: human, WI38 normal fibroblast cells. The protocol: as §4, §5, §6

On to `Nc1c2c(=O)nc3scnn3c2nc2nnnn12` [Compound 11, 6-Amino-5H-[1,3,4]thiadiazolo[2′,3′:2,3]pyrimido[4,5-d]tetrazolo[1,5-a]pyrimidin-5-one], for which the melting point fell in the range of 274 to 275 °C. The same compound yielded a minimum inhibitory concentration (MIC) in [1] of over 1250 µg/mL. The MIC against Candida albicans turned out to be 1250 µg/mL (≈ 4.79 mM). The zone of inhibition at 5000 µg/mL in [2] was 5 mm. The compound also registered an IC50 in the series on Hep-2 of 38.8 ± 0.74 µM. In addition, the IC50 in the series on HepG2 was found to be 42.2 ± 1.17 µM. This compound also had an IC50 in the series on MCF-7 of 31.8 ± 0.67 µM. The compound also showed an IC50 with PC3 of 38.1 ± 0.49 µM. In series [3], this compound gave an IC50 at 3 days of 20.2 ± 0.39 µM.
Take `Cc1nn(-c2ccccc2)c2c1C1C(=C(N)O2)C(=O)N=C2SC=NN21` (stereo not drawn) [Compound 10b, 6-Amino-10-methyl-8-phenyl-8,10b-dihydro-5H-pyrazolo[4′,3′:5,6]pyrano[3,4-e][1,3,4]thiadiazolo[3,2-a]pyrimidin-5-one]: the melting point is 266 to 267 °C. In series [1], this compound registered an MIC of over 1250 µg/mL. Moreover, the MIC against Candida albicans was over 1250 µg/mL. In addition, the zone of inhibition at 5000 µg/mL in series [2] was 9 mm. In addition, the IC50 in the series on Hep-2 was found to be 28.8 ± 1.8 µM. Also, in the series on HepG2, it took 37.6 ± 1.26 µM to reach half-maximal inhibition (IC50). In the series on MCF-7, this compound registered an IC50 of 27.4 ± 0.49 µM. This compound also gave an IC50 with PC3 of 27.3 ± 0.53 µM. The same compound gave an IC50 at 3 days in series [3] of 25.4 ± 0.62 µM.
`CC1=C(C#N)C2C(=C(N)O1)C(=O)N=C1SC=NN12` (stereo not drawn) [Compound 9a, 6-Amino-9-cyano-8-methyl-5-oxo-5H,9aH-pyrano[3,4-e][1,3,4]thiadiazolo[3,2-a]pyrimidine] yielded a melting point of 264 to 265 °C. The same compound gave an MIC in series [1] of over 1250 µg/mL. Also, in the series with Candida albicans, it took 312 µg/mL (≈ 1.2 mM) to inhibit growth (MIC). Also, the zone of inhibition at 5000 µg/mL in series [2] was determined as 11 mm. Besides, in the series on Hep-2, the IC50 worked out at 20 ± 0.24 µM. This compound also came in with an IC50 in the series with HepG2 of 33.2 ± 0.36 µM. Also, the IC50 in the series with MCF-7 turned out to be 22.7 ± 0.29 µM. Also, half-maximal inhibition in the series with PC3 (IC50) was put at 46.4 ± 1.07 µM. The compound further displayed an IC50 at 3 days in series [3] of 36.12 ± 0.28 µM.
The compound `Cc1ccc(N=Nc2c(N)nn3c(N)c4c(=O)nc5scnn5c4nc23)cc1` [Compound 16a, 6,9-Diamino-10-(4-methylphenylazo)-5H-pyrazolo[1′,5′:1,2]pyrimido[5,4-e][1,3,4]thiadiazolo[3,2-a]pyrimidin-5-one] returned a melting point of over 320 °C. The MIC in series [1] is over 1250 µg/mL. The same compound yielded an MIC in the series on Candida albicans of over 1250 µg/mL. Moreover, the zone of inhibition at 5000 µg/mL in series [2] turned out to be 9 mm. This compound returned a concentration for half-maximal inhibition (IC50) with Hep-2 of 32.7 ± 0.36 µM. This compound gave an IC50 in the series with HepG2 of 37.6 ± 1.26 µM. The IC50 in the series with MCF-7 was 7.53 ± 0.08 µM. In the series on PC3, this compound came in with an IC50 of 44.2 ± 0.94 µM. For the same compound, in [3], inhibition was half-maximal at 60.1 ± 2.41 µM (IC50 at 3 days).
`N#CC1=C(c2ccccc2)OC(N)=C2C(=O)N=C3SC=NN3C12` (stereo not drawn) [Compound 9b, 6-Amino-9-cyano-5-oxo-8-phenyl-5H,9aH-pyrano[3,4-e][1,3,4]thiadiazolo[3,2-a]pyrimidine] returned a melting point of 258 to 260 °C. The MIC in series [1] is over 1250 µg/mL. Besides, 312 µg/mL (≈ 0.966 mM) was the least that counted as inhibitory in the series with Candida albicans (MIC). Further, the zone of inhibition at 5000 µg/mL in series [2] amounted to 3 mm. The IC50 in the series on Hep-2 worked out at 11.7 ± 0.36 µM. Further, the IC50 in the series with HepG2 is 26.78 ± 0.18 µM. The IC50 with MCF-7 was 12.8 ± 0.26 µM. The compound further displayed an IC50 in the series with PC3 of 38.4 ± 0.89 µM. This compound yielded an IC50 at 3 days in series [3] of 48.2 ± 1.47 µM.
Consider `COc1ccc(N=Nc2c(O)nn3c(N)c4c(=O)nc5scnn5c4nc23)cc1` [Compound 17b, 6-Amino-9-hydroxy-10-(4-methoxyphenylazo)-5H-pyrazolo[1′,5′:1,2]pyrimido[5,4-e][1,3,4]thiadiazolo[3,2-a]pyrimidin-5-one], for which the melting point lay in the range of 280 to 281 °C. The same compound gave an MIC in series [1] of 1250 µg/mL (≈ 3.05 mM). This compound returned an MIC against Candida albicans of 1250 µg/mL (≈ 3.05 mM). In [2], the zone of inhibition at 5000 µg/mL turned out to be 12 mm. This compound yielded an IC50 in the series with Hep-2 of 19 ± 0.4 µM. Half-maximal inhibition with HepG2 (IC50) was put at 33.54 ± 0.25 µM. In the series with MCF-7, this compound showed an IC50 of 8.84 ± 0.17 µM. Moreover, half-maximal inhibition with PC3 (IC50) was put at 36.8 ± 0.43 µM. In [3], the IC50 at 3 days is 58.4 ± 2.29 µM.
With `Nc1c2c(=O)nc3scnn3c2nc2nncn12` [Compound 12, 6-Amino-5H-[1,2,4]triazolo[4′,3′:1,2]pyrimido[5,4-e][1,3,4]thiadiazolo[3,2-a]pyrimidin-5-one], the melting point was in the range of 290 to 291 °C. The compound further gave an MIC in [1] of over 1250 µg/mL. The compound further displayed an MIC in the series on Candida albicans of over 1250 µg/mL. In series [2], the zone of inhibition at 5000 µg/mL worked out at 3 mm. Moreover, 34.1 ± 0.97 µM corresponded to half-maximal inhibition in the series on Hep-2 (IC50). The IC50 in the series with HepG2 came to 44.3 ± 1.35 µM. Moreover, in the series on MCF-7, the half-maximal inhibitory concentration (IC50) stood at 36.92 ± 0.29 µM. The IC50 in the series with PC3 worked out at 47.4 ± 0.89 µM. The IC50 at 3 days in series [3] amounted to 17.7 ± 0.71 µM.

These data come from publication PMC8333053, “Synthesis and biological screening of new thiadiazolopyrimidine-based polycyclic compounds” (Scientific Reports, 2021).
